Test results reported in patent EP1528931B1, “DIPEPTIDYL PEPTIDASE IV INHIBITORS FOR DECREASING THE RATE OF CHRONIC WEIGHT GAIN” (Prosidion Ltd., priority 2002, dated 2004).
Several values for one entry are separate records, joined by “and”; a condition that tells them apart may be missing. Equal entries are not always repeated. Ends that are not written are not given here.

Key:
[1] = system: Male Zucker fa/fa rats; test: Repeated once-daily dosing for 21 days: morning values and day-night profile of blood glucose and plasma insulin; assay type: in vivo, rat
Protocol: The parameters monitored were morning blood glucose and plasma insulin levels. In a day-night profile, glycemia and insulinaemia were monitored from day 16 to day 17. An OGTT was performed finally on day 21 to monitor blood glucose and plasma insulin kinetics to assess changes in glucose tolerance. Glibenclamide (DAB 1996; R011150/33372) was donated by Berlin-Chemie (Berlin, Germany). Male Zucker (fa/fa) rats of the body Weight class of 300g were purchased from Charles River (Sulzfeld, Germany).
Housing Conditions: Animals were kept single-housed under conventional conditions with controlled temperature (22±2 °C) on a 12/12 hours light/dark cycle (light on at 06:00 a.m.). Standard pellets (ssniff®, Soest, Germany) and tap water acidified with HCl were allowed ad libitum.
Catheterization of Carotid Artery: After one week of adaptation carotid catheters were implanted in the rats under general anesthesia (injection of 0.25 ml/kg i.p. Rompun® [2%], Bayer, Germany) and 0.5 ml/kg i.p. Velonarkon® (Arzneimittelwerk Dresden, Germany). The animals were allowed to recover for one week. The catheter was flushed with heparin-saline (104 IU/ml) three times per week.
Thereafter, the non-diabetic Wistar rats were treated orally once daily with RP (5 mg/kg b.w.) or TP (21.51 mg/kg b.w.) and the diabetic Zucker rats were treated orally once daily with RP (1 mg/kg b.w.) or TP (21.61 mg/kg b.w.) for 21 days at 05.00 p.m. (before regular food intake in the dark phase). The controls were given 1% cellulose solution orally (5 ml/kg). Blood samples were taken every morning at 07.30 a.m. from tail veins for measurement of blood glucose and plasma insulin. The last blood samples of this part of the program were taken at 07.30 a.m. on the 15th day to measure blood glucose and plasma insulin. The oral drug therapy was continued for one week. Recording the day-night profile under the above therapy blood glucose (Δt ≡ 3 h) and plasma insulin (Δt = 3-6 h) wore monitored from day 16 (at b5.40 p.m. beginning) to day 17 (at 02.00 p.m. end).
(§1) Blood glucose: Glucose levels were measured using the glucose oxidase procedure (Super G Glukosemeßgerät; Dr. Müller Gerätebau, Freital, Germany).
(§2) Plasma insulin: Insulin concentrations were assayed by the antibody RIA method (LINCO Research, Inc. St Charles, Mo., USA).

[2] = system: Male Zucker fa/fa rats; test: OGTT on day 21 of repeated dosing; assay type: in vivo, rat
Protocol: OGTT: A final OGTT was performed on day 21 with blood sampling from the tail vein. Blood samples from the tail vein were taken at-12 h (the night before day 21), at 0 min (immediately before the beginning of OGTT), at 10, 20, 30, 40, 50, 60, 80, 100 and 120 min. Blood samples were taken in 20 µl glass capillaries for blood glucose measurements and in Eppendorf tubes (100 µl). The latter were immediately centrifuged and the plasma fractions were stored at-20°C for insulin analysis.
as §1, §2

[3] = molecular target: human plasma containing DP IV-activity (Homo sapiens, UniProt P27487); test: Proteolytic processing of peptides in human plasma with or without P32/98, MALDI-TOF; conditions: human EDTA-plasma with 9.8 µMol/l isoleucyl thiazolidine hemifumarate
Sequence of human plasma containing DP IV-activity (Homo sapiens, UniProt P27487) (P27487 39-766 limits assumed): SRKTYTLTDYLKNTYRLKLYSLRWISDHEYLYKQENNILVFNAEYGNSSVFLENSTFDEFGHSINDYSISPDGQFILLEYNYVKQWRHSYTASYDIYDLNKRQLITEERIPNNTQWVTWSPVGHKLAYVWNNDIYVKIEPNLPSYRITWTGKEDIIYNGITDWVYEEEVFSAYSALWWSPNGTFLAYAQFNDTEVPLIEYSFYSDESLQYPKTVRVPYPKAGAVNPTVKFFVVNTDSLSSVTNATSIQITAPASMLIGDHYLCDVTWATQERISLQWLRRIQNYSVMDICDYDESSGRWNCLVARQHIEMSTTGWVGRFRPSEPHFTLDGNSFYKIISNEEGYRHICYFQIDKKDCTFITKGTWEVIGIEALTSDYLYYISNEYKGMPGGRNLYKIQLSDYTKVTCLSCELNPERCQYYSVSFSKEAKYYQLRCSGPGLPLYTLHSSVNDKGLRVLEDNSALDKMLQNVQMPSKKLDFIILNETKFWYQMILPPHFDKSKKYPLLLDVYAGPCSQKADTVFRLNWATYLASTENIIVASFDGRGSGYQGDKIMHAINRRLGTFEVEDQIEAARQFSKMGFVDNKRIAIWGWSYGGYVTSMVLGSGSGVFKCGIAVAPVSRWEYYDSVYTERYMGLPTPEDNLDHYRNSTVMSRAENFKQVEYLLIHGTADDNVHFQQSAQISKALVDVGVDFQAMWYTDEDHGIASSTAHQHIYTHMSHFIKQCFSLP
Protocol: Matrix-assisted laser desorption/ionisation mass spectrometry was carried out using the Hewlett-Packard G2025 LD-TOF System with a linear tune of flight analyzer. […] The spectrometer was calibrated externally. […] Samples of the reaction mixtures were removed at various time intervals and mixed with equal volumes of the matrix solution. By mixing assay sample and matrix, the low pH of the matrix solution stopped the enzymatic reaction. A small volume (< 1 µl) of this mixture was transferred to a probe tip and immediately evaporated in a Hewlett-Packard G2024A Sample Prep Accessory to ensure rapid and homogenous sample crystallization. All spectra were generated using automatic mode by averaging 250 single shots selected by the signal-to-noise ratio.
The DP IV used in this study was purified from porcine kidney. […] In the case of plasma, fresh prepared human EDTA-plasma from healthy subjects was used. […] Capillary zone electrophoresis (CZE) investigations were carried out using a system from Beckman. Peptides and enzymes were incubated in the capillary electrophoresis system at 37°C using a 20 mM phosphate buffer pH7.4. Decrease of substrate was determined by subsequent measurements of the same sample. Separation was carried out using a 0.1 M phosphate buffer pH 2.5, a 50 µm * 30 cm fused silica capillary and 16 kV constant voltage. Peptides were detected at 200 nm. Substrate concentrations were calculated from the height of the peptide peaks, For determination of kinetic constants the degradation velocity from at least 4 substrate concentrations were determined and fitted according the Michaelis-Menten equation using Graphit 4.0.

[4] = system: human plasma containing DP IV-activity; test: as above; assay type: in vitro ADME; conditions: inhibitor 9.8 µMol/l
Description: The instrument was equipped with a 337 nm nitrogen laser, a potential acceleration source (5 kV) and a 1.0 m flight tube. […] The spectrometer was calibrated externally.
Peptides were detected at 200 nm.

[5] = molecular target: T1, porcine DP IV (Sus scrofa, UniProt P22411); test: Kinetic constants of peptide degradation by DP IV, capillary zone electrophoresis (CZE); assay type: biochemical; conditions: 37°C, phosphate buffer pH7.4, read-out: Cleavage, porcine DP IV, Km
T1 construct: from tissue; host or cells: porcine kidney
T1 sequence (P22411 whole entry): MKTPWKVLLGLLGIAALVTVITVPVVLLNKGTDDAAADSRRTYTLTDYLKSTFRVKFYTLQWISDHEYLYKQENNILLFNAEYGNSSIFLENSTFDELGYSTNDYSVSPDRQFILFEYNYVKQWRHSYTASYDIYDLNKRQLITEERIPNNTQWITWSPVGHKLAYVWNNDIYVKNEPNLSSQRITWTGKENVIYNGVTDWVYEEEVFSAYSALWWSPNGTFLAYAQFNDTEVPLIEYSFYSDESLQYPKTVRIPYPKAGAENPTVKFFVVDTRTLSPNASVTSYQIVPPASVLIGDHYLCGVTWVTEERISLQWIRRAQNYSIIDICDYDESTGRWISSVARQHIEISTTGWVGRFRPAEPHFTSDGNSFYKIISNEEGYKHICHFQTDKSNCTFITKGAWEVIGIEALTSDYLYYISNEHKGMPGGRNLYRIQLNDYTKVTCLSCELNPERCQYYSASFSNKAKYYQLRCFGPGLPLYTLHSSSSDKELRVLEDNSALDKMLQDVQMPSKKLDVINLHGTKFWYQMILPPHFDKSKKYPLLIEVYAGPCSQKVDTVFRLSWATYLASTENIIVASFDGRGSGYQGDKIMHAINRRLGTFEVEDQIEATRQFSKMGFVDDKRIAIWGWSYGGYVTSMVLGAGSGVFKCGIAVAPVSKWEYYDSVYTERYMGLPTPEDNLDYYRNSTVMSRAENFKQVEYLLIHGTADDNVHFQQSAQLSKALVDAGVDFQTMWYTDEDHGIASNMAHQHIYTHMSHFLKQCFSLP
Protocol: The DP IV used in this study was purified from porcine kidney. The specific activity measured using Gly-Pro-4-nitroanilide as a chromogenic substrate was at least 5 units/mg. […] Capillary zone electrophoresis (CZE) investigations were carried out using a system from Beckman. Peptides and enzymes were incubated in the capillary electrophoresis system at 37°C using a 20 mM phosphate buffer pH7.4. Decrease of substrate was determined by subsequent measurements of the same sample. Separation was carried out using a 0.1 M phosphate buffer pH 2.5, a 50 µm * 30 cm fused silica capillary and 16 kV constant voltage. Peptides were detected at 200 nm. Substrate concentrations were calculated from the height of the peptide peaks, For determination of kinetic constants the degradation velocity from at least 4 substrate concentrations were determined and fitted according the Michaelis-Menten equation using Graphit 4.0.

COc1ccc(Cl)cc1C(=O)NCCc1ccc(S(=O)(=O)NC(=O)NC2CCCCC2)cc1 [glibenclamide]
Day-night profile: mean blood glucose ([1]; Zucker rats, 02.00 p.m. next day): 7.34 ± 0.77 mmol/L
Day-night profile: plasma insulin ([1]; Zucker rats, 02.00 p.m. the next day): 58.3 ± 7.3 ng/mL
Day-night profile: plasma insulin ([1]; Zucker rats, day 16, 05.00 p.m.): 50.0 ± 8.2 ng/mL
Day-night profile: mean blood glucose ([1]; Zucker rats, day 16, 05.00 p.m., RP 1 mg/kg or TP 21.61 mg/kg orally once daily): 7.96 ± 1.13 mmol/L
Day-night profile: plasma insulin ([1]; Zucker rats, day 16, 08.00 p.m.): 57.3 ± 8.2 ng/mL
Day-night profile: mean blood glucose ([1]; Zucker rats, day 16, 11.00 p.m.): 14.80 ± 1.46 mmol/L
Day-night profile: plasma insulin ([1]; Zucker rats, day 17, 05.00 a.m.): 76.3 ± 8.6 ng/mL
Day-night profile: mean blood glucose ([1]; Zucker rats, day 17, 11.00 a.m.): 7.66 ± 1.22 mmol/L
Increase of morning blood glucose ([1]; Zucker rats, within two days of therapy): about 1.5 mmol/l
Increase of insulin output ([1]; obese Zucker rat, subchronic treatment, total daily insulin secretion): 27%
Glycemia at last drug application before overnight fasting ([2]; 05.00 p.m., night before day 21): 8.81 ± 1.21 mmol/L
Blood glucose increase after the glucose load ([2]; OGTT day 21): about 11 mmol/l
glucose area under the curve (G-AUC0-120 min) ([2]; OGTT day 21): 1096 ± 76 mmol·min/L
Glycemia after overnight fasting (basal, before OGTT) ([2]; day 21, 07.30 a.m.): 4.91 ± 0.37 mmol/L
OGTT blood glucose ([2]; day 21, 50 min): 16.33 ± 0.98 mmol/L
OGTT blood glucose ([2]; day 21, 80 min): 16.24 ± 1.09 mmol/L
OGTT blood glucose ([2]; day 21, 100 min): 15.13 ± 0.76 mmol/L
OGTT blood glucose ([2]; day 21, 120 min): 14.81 ± 0.66 mmol/L
Fasting plasma insulin at the beginning of the OGTT ([2]; day 21, overnight fasting, listed as RP): 11.8±1.5 ng/ml and ~ 12.5 ng/ml

Cholecystokinin [Cholecystokinin (CCK21)]
Cleavage, human plasma +P32/98 [3]: slow unspecific degradation by aminopeptidases and ø

Di-[2S,3S]-2-Amino-3-methyl-pentanoic-1,3-thiazolidine fumarate [P32/98]
Hydrolysis of gastrointestinal peptides in human plasma [4]: blocked

Gastrin releasing peptide (VPLPAGGGTVLTKMYPRGNHWAVGHLM; ends and bridges not checked; UniProt P07492 24-50, looked up) [Gastrin releasing peptide (GRP)]
Cleavage, human plasma +P32/98 [3]: ø

Peptide histidin methionine [Peptide histidin methionine (PHM)]
Km [5]: 35 µM
Cleavage, human plasma +P32/98 [3]: ø

Pituitary adenylate cyclase activating polypeptide 27
Cleavage, human plasma +P32/98 [3]: ø

Secretin
Cleavage, human plasma +P32/98 [3]: ø

Somatostatin 14
Km [5]: 42 µM

Somatostatin 28
Km [5]: 6 µM
